Experimental data reported in publication PMC9586895, “Esomeprazole and apixaban pharmacokinetic interactions in healthy rats” (Heliyon, 2022).
Read-outs that look alike come from different tables or passages of the source.

Legend:
[1] = Pharmacokinetic study in Wistar rats, plasma levels by HPLC/MS, non-compartmental analysis; format: in vivo; details: for bioavailability: read-out: absolute bioavailability (F); for AUC(0-t): read-out: AUC0–24; for Cpmax: rat plasma
Description: The column is ACE C8 (50 ∗ 4.6) mm, particle size 5 μm (Supercell), and AP 13C as the internal standard. […] The chromatographic conditions of Ap and ESO analysis were as follows: The HPLC system: […] Detector: API 4000, Applied Biosystems, MDS SCIEX; computer system: […] Data Management Software: […] Column: ACE C8, (50 ∗ 4.6) mm, particle size 5 μm; Flow Rate: 650 μL/min; Injection Volume: 1 μL; […] Expected retention time: […] The ethical committee approved the study protocol of the High Research Council, Faculty of Pharmacy of the […] University, and the study was carried out in the animal house of the university. […] They were divided into five groups, each of 6 rats. Group 1 ([…].V sterile solution (5 mg/kg) in D.W containing 5% ethanol. Group 2 (G2) was given AP as sterile I.V solution (125 mcg/kg) in D.W containing 10% ethanol. […] All rats fasted overnight with access only to water. […] Blood samples were drawn into an EDTA tube and immediately centrifuged at 14,000 rpm for 7 min. Plasma was obtained and placed into a labeled Eppendorf tube and stored at […] until analysis. After constructing the Cp vs. t profile by plotting the average plasma concentration of each drug in ng/mL vs. time in hours, the pharmacokinetics was performed using Non-Compartmental Analysis (NCA) using WinNonlin® (Version 8.1).

[2] = cited from earlier work
[3] = system: plasma protein, mainly albumin; details: cited from earlier work
P-gp = system: P-gp; design: method as in PMID 11770010; details: cited from earlier work
[4] = IV (ESO 5 mg/kg; AP 125 mcg/kg)
[5] = Wistar, rat, plasma, iv, IV (ESO 5 mg/kg; AP 125 mcg/kg)
[6] = Wistar, rat, plasma, iv, IV (ESO 5 mg/kg; AP 125 mcg/kg), NCA, read-out: Kel (app) (converted)
[7] = Wistar, rat, plasma, iv, read-out: Vd
[8] = Wistar, rat, plasma, po, ESO 5 mg/kg + AP 250 mcg/kg in combination
[9] = Wistar, rat, plasma, po, ESO 5 mg/kg + AP 250 mcg/kg in combination, NCA, read-out: Kel (app) (converted)
[10] = Wistar, rat, plasma, po, given alone (ESO 5 mg/kg; AP 250 mcg/kg)
[11] = Wistar, rat, plasma, po, given alone (ESO 5 mg/kg; AP 250 mcg/kg), NCA, read-out: Kel (app) (converted)
[12] = oral, ESO 5 mg/kg + AP 250 mcg/kg in combination
[13] = oral, given alone (ESO 5 mg/kg; AP 250 mcg/kg)

SMILES	AUMC0–24 [1, 4] [ng.h^2/mL]	AUMC0–∞ [1, 4] [ng.h^2/mL]	clearance ([1]; Wistar, rat, plasma, iv) [mL/min]	AUC(0-inf) [1, 5] [ng·h/mL]	MRT inf [1, 5] [h]	half-life [1, 5] [h]	k el [1, 6] [s⁻¹]	AUC(0-t) [1, 5] [ng·h/mL]	Vd [1, 7] [L]	AUC(0-inf) [1, 8] [ng·h/mL]	MRT inf [1, 8] [h]	Tmax [1, 8] [h]	half-life [1, 8] [h]	k el [1, 9] [s⁻¹]	AUC(0-t) [1, 8] [ng·h/mL]	AUC(0-inf) [1, 10] [ng·h/mL]	MRT inf [1, 10] [h]	Tmax [1, 10] [h]	k el [1, 11] [s⁻¹]	AUC(0-t) [1, 10] [ng·h/mL]	also measured
COc1ccc(-n2nc(C(N)=O)c3c2C(=O)N(c2ccc(N4CCCCC4=O)cc2)CC3)cc1 [AP, 1-(4-methoxyphenyl)-7-oxo-6-[4-(2-oxopiperidin-1-yl)phenyl]-4,5-dihydropyrazolo [3,4-c]pyridine-3-carboxamide]	8164.8 ± 78.3	28975.07 ± 2364	0.3 ± 0.08	1340 ± 120	21.5 ± 1.5	14.9 ± 1.8	1.29e-05	894 ± 80.6	0.4 ± 0.09	1560 ± 78	14 ± 0.21	1 ± 0.32	9.6 ± 0.144	1.99e-05	1270 ± 63.3	1540 ± 54	24 ± 0.24	6 ± 1.09	1.17e-05	959 ± 38.4	bioavailability ([1]; Wistar, rat, plasma, 250 mcg/kg, oral vs IV, drug given alone, F=AUCoral/AUCiv∙Doseiv/Doseoral): 42 ± 1%; half-life [1, 10]: 16.6 ± 0.99 h; AUMC0–24 [1, 12]: 10320.5 ± 516 ng.h^2/mL; AUMC0–∞ [1, 12]: 21710.2 ± 215.1 ng.h^2/mL; Vd [1, 12]: 2.1 ± 0.015 L; Cpmax [1, 12]: 98.6 ± 12.6 ng/mL; AUMC0–24 [1, 13]: 9517 ± 475.8 ng.h^2/mL; AUMC0–∞ [1, 13]: 37101 ± 742.2 ng.h^2/mL; Cl [1, 13]: 0.54 ± 0.03 mL/min; Vd [1, 13]: 0.779 ± 0.032 L; Cpmax [1, 13]: 57.2 ± 5.3 ng/mL; excreted in the urine as unchanged drug [2]: 25%; excreted into the bile as unchanged drug [2]: 56%; share of total absorption in the distal part and the descending colon [2]: 55%; volume of distribution ([2]; mainly extracellular fluids ref 14): 21 L; bioavailability ([2]; no noticeable effect of food ref 12): around 50%; bound to plasma protein ([3]; mainly albumin ref 14): 87–90%
COc1ccc2[nH]c([S+]([O-])Cc3ncc(C)c(OC)c3C)nc2c1 (stereo not shown) [ESO, 5-methoxy-2-{[(4-methoxy-3,5-dimethylpyridin-2-yl)methyl]sulfinyl}-1H-benzimidazole]	35805 ± 826	40322.6 ± 1256	3.7 ± 0.7	5450 ± 118	7.4 ± 0.95	4.8 ± 0.8	3.94e-05	5120 ± 120	1.5 ± 0.15	3410 ± 45.9	8.6 ± 0.13	4 ± 0.55	5.9 ± 0.236	3.22e-05	3250 ± 160	4510 ± 226	6.4 ± 0.128	2 ± 0.156	4.08e-05	4380 ± 218	half-life ([1]; Wistar, rat, in vivo, po): 4.7 ± 0.14 h; bioavailability ([1]; Wistar, rat, plasma, oral): 62 ± 1.5%; k el ([1]; Wistar, rat, plasma, po, 5 mg/kg, oral ESO 5 mg/kg alone, read-out: elimination rate constant calculated from late concentrations of the plasma level time profile (linear model) (converted)): 4.53e-05 s⁻¹; decrease of AUC when given with AP ([1]; oral ESO 5 mg/kg with AP 250 mcg/kg vs alone): 25%; extrapolated area to infinity as share of the total area ([1]; oral ESO alone): about 13%; extrapolated area to infinity as share of the total area ([1]; oral ESO in combination with AP): 20%; AUMC0–24 [1, 12]: 23544.9 ± 309 ng.h^2/mL; AUMC0–∞ [1, 12]: 29430.9 ± 1473 ng.h^2/mL; Cl [1, 12]: 4.8 ± 0.14 mL/min; Vd [1, 12]: 2.4 ± 0.09 L; Cpmax [1, 12]: 387.9 ± 23.5 ng/mL; AUMC0–24 [1, 13]: 24658.6 ± 206.5 ng.h^2/mL; AUMC0–∞ [1, 13]: 29094.1 ± 1454.7 ng.h^2/mL; Vd [1, 13]: 1.41 ± 0.07 L; Cpmax [1, 13]: 695.9 ± 25.8 ng/mL; volume of distribution ([2]; adults ref 6, 7): 16 to 18 L; bioavailability ([2]; after 20 or 40 mg delayed-release tablets ref 6, 7): about 90%; P-gp inhibitor strength (P-gp): moderate to potent P-gp inhibitor; plasma protein binding ([3]; mainly to albumin ref 6, 7): about 97%
